Experimental data taken from article PMC9873571, “Plant-specific features of respiratory supercomplex I + III2 from Vigna radiata” (Nature Plants, 2022).

Experiments:
[1] = target: T1, V. radiata complex I (CI), NADH dehydrogenase site (Vigna radiata, UniProt A0A1S3V7V2); assay: NADH-cytochrome c oxidoreductase activity of purified SC I + III2; format: biochemical; conditions: 10 µM NADH, 100 µM decylubiquinone, 100 µM equine cyt c, pH 7.4
T1 construct: gene LOC106772405; native complex I, in purified supercomplex I + III2 (NADH) or in washed mitochondrial membranes (dNADH)
T1 sequence (A0A1S3V7V2 28-491): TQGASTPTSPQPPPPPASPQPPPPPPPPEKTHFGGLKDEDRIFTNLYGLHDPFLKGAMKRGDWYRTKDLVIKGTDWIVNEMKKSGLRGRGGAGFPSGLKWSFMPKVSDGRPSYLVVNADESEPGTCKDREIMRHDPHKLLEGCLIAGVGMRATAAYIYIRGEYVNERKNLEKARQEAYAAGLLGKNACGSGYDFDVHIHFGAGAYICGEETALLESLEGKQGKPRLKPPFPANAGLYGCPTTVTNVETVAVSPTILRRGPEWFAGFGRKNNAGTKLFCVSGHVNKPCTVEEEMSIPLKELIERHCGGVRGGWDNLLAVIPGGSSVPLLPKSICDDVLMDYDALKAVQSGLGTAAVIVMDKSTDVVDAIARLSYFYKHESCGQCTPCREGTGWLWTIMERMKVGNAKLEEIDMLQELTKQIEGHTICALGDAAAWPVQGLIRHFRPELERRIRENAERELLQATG
T1 sequence (A0A1S3TQ85 32-746 partner): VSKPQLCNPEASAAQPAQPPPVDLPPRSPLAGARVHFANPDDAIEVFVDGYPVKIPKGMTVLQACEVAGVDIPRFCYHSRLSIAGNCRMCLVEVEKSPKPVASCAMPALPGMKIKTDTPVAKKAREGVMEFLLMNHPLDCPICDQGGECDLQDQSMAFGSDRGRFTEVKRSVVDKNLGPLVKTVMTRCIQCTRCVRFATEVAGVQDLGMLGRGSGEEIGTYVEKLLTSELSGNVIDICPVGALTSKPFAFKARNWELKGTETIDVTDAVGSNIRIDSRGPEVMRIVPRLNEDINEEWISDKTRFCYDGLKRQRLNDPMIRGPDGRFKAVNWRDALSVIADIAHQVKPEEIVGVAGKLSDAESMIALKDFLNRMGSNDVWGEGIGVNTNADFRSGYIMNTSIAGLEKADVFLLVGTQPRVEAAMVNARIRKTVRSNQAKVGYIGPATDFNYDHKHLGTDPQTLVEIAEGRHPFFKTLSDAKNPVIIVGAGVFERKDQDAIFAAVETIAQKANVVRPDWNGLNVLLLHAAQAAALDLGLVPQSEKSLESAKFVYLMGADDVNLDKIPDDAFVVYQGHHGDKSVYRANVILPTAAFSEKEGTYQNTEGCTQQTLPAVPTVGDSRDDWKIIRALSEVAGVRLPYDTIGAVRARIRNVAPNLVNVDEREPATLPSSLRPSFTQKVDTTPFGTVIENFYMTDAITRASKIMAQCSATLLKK
T1 sequence (A0A1S3U769 25-251 partner): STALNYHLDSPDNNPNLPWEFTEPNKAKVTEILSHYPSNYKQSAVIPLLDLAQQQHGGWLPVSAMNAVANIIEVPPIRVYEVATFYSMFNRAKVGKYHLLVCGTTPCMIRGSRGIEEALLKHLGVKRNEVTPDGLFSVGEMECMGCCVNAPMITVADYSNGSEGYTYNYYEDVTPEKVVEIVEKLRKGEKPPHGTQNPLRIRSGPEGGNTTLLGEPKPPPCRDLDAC

[2] = target: T2, V. radiata SC I + III2 (complex I, quinone-binding site) (Vigna radiata, UniProt A0A1S3U8J5+E9KZL0+E9KZN6); assay: NADH-cytochrome c oxidoreductase activity, A550; format: biochemical; conditions: 20 mM HEPES pH 7.4, 50 mM NaCl, 10% glycerol, 100 µM decylubiquinone, 100 µM equine cyt c, 10 µM NADH, 4 μM KCN
T2 construct: gene nad7; native complex I (14 core + 34 accessory subunits) in supercomplex I + III2, from etiolated hypocotyl mitochondria, digitonin-extracted, amphipol A8-35 stabilized, SEC purified; assayed as NADH-cyt c oxidoreductase; nad1 and NDUS2 transcripts RNA-edited
T2 sequence (E9KZN6 entry or part of it): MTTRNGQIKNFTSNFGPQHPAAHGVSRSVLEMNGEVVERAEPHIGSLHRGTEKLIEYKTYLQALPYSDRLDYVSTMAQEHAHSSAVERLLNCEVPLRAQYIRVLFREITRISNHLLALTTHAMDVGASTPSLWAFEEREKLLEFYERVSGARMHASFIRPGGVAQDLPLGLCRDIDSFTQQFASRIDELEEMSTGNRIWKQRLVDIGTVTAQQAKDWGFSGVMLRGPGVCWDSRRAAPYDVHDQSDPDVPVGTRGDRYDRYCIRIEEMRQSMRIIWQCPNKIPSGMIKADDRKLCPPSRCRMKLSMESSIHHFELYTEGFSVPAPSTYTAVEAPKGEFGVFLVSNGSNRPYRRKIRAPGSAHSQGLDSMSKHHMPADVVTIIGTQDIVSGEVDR
T2 sequence (E9KZL0 entry or part of it): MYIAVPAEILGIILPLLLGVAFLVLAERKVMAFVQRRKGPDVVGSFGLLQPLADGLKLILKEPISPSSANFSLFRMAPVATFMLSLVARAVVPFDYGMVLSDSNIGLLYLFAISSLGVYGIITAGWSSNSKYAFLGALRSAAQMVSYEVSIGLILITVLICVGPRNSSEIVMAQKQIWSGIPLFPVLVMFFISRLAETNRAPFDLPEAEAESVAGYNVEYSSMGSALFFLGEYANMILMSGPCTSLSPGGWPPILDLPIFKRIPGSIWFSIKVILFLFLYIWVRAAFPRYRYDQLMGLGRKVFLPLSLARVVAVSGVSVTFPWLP
T2 sequence (A0A1S3U8J5 entry or part of it): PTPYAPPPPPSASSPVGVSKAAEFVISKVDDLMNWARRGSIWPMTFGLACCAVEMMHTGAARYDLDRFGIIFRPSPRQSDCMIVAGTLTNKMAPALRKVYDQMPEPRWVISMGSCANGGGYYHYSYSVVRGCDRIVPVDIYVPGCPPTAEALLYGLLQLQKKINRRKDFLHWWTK

NC(=O)C1=CN([C@@H]2O[C@H](COP(=O)(O)OP(=O)(O)OC[C@H]3O[C@@H](n4cnc5c(N)ncnc54)[C@H](O)[C@@H]3O)[C@@H](O)[C@H]2O)C=CC1 [NADH]
NADH-cytochrome c oxidoreductase activity of purified SC I + III2 [1]: The final biochemical sample showed the expected NADH-cyt c oxidoreductase activity

C/C=C(\C)[C@H](O)[C@H](C)/C=C(C)/C=C/C/C(C)=C/Cc1nc(OC)c(OC)c(O)c1C [piericidin A]
inhibition at 20 μM [2]: inhibited by CI and CIII2 inhibitors piericidin A and antimycin A, respectively
